Measurements reported in the NIST ThermoML archive (doi:10.1016/j.jct.2007.05.011).

Assay: xn = mol fraction of the nth substance listed
Details: 101 kPa, Liquid; for mass density: Vibrating tube method

NCCO.O=CO [2-hydroxyethylammonium formate] + CO
Details | mass density [kg/m3] | speed of sound [m/s]
305.65 K, x2 = 0 | – | 1690.8
305.65 K, x2 = 0.055 | – | 1708.1
305.65 K, x2 = 0.098 | – | 1696.5
305.65 K, x2 = 0.193 | – | 1665.8
305.65 K, x2 = 0.296 | – | 1628.2
305.65 K, x2 = 0.399 | – | 1584.1
305.65 K, x2 = 0.5 | – | 1532.8
305.65 K, x2 = 0.598 | – | 1474
305.65 K, x2 = 0.701 | – | 1403.2
305.65 K, x2 = 0.799 | – | 1318
305.65 K, x2 = 0.9 | – | 1213.2
305.65 K, x2 = 0.951 | – | 1148.9
308.15 K, x2 = 0 | 1169.39 | 1684.8
308.15 K, x2 = 0.055 | 1162.82 | 1702.9
308.15 K, x2 = 0.098 | 1156.3 | 1691.3
308.15 K, x2 = 0.193 | 1139.55 | 1660.5
308.15 K, x2 = 0.296 | 1118.84 | 1622.8
308.15 K, x2 = 0.399 | 1094.27 | 1578.5
308.15 K, x2 = 0.5 | 1065.38 | 1527.1
308.15 K, x2 = 0.598 | 1031.9 | 1468
308.15 K, x2 = 0.701 | 990.06 | 1396.8
308.15 K, x2 = 0.799 | 937.959 | 1311.2
308.15 K, x2 = 0.9 | 869.95 | 1206
308.15 K, x2 = 0.951 | 826.572 | 1141.2
310.65 K, x2 = 0 | 1167.62 | 1678.7
310.65 K, x2 = 0.055 | 1161.16 | 1697.8
310.65 K, x2 = 0.098 | 1154.64 | 1686.1
310.65 K, x2 = 0.193 | 1137.87 | 1655.3
310.65 K, x2 = 0.296 | 1117.13 | 1617.4
310.65 K, x2 = 0.399 | 1092.53 | 1573
310.65 K, x2 = 0.5 | 1063.59 | 1521.4
310.65 K, x2 = 0.598 | 1030.06 | 1462
310.65 K, x2 = 0.701 | 988.146 | 1390.5
310.65 K, x2 = 0.799 | 935.95 | 1304.5
310.65 K, x2 = 0.9 | 867.803 | 1198.7
310.65 K, x2 = 0.951 | 824.316 | 1133.6
313.15 K, x2 = 0 | 1165.84 | 1672.7
313.15 K, x2 = 0.055 | 1159.51 | 1692.7
313.15 K, x2 = 0.098 | 1152.98 | 1681
313.15 K, x2 = 0.193 | 1136.19 | 1650
313.15 K, x2 = 0.296 | 1115.42 | 1612
313.15 K, x2 = 0.399 | 1090.78 | 1567.5
313.15 K, x2 = 0.5 | 1061.81 | 1515.6
313.15 K, x2 = 0.598 | 1028.22 | 1456
313.15 K, x2 = 0.701 | 986.228 | 1384.2
313.15 K, x2 = 0.799 | 933.936 | 1297.8
313.15 K, x2 = 0.9 | 865.647 | 1191.4
313.15 K, x2 = 0.951 | 822.053 | 1125.9
315.65 K, x2 = 0 | 1164.06 | 1666.7
315.65 K, x2 = 0.055 | 1157.86 | 1687.6
315.65 K, x2 = 0.098 | 1151.33 | 1675.8
315.65 K, x2 = 0.193 | 1134.51 | 1644.8
315.65 K, x2 = 0.296 | 1113.71 | 1606.7
315.65 K, x2 = 0.399 | 1089.03 | 1561.9
315.65 K, x2 = 0.5 | 1060.02 | 1509.9
315.65 K, x2 = 0.598 | 1026.37 | 1450.1
315.65 K, x2 = 0.701 | 984.31 | 1377.9
315.65 K, x2 = 0.799 | 931.919 | 1291.2
315.65 K, x2 = 0.9 | 863.489 | 1184.2
315.65 K, x2 = 0.951 | 819.788 | 1118.4
318.15 K, x2 = 0 | 1162.29 | 1660.8
318.15 K, x2 = 0.055 | 1156.21 | 1682.5
318.15 K, x2 = 0.098 | 1149.67 | 1670.7
318.15 K, x2 = 0.193 | 1132.83 | 1639.5
318.15 K, x2 = 0.296 | 1112 | 1601.3
318.15 K, x2 = 0.399 | 1087.29 | 1556.4
318.15 K, x2 = 0.5 | 1058.22 | 1504.2
318.15 K, x2 = 0.598 | 1024.52 | 1444.2
318.15 K, x2 = 0.701 | 982.388 | 1371.7
318.15 K, x2 = 0.799 | 929.9 | 1284.6
318.15 K, x2 = 0.9 | 861.326 | 1177.1
318.15 K, x2 = 0.951 | 817.518 | 1110.9
320.65 K, x2 = 0 | 1160.51 | 1654.8
320.65 K, x2 = 0.055 | 1154.57 | 1677.4
320.65 K, x2 = 0.098 | 1148.03 | 1665.5
320.65 K, x2 = 0.193 | 1131.15 | 1634.3
320.65 K, x2 = 0.296 | 1110.29 | 1596
320.65 K, x2 = 0.399 | 1085.54 | 1550.9
320.65 K, x2 = 0.5 | 1056.43 | 1498.5
320.65 K, x2 = 0.598 | 1022.67 | 1438.3
320.65 K, x2 = 0.701 | 980.467 | 1365.5
320.65 K, x2 = 0.799 | 927.874 | 1278
320.65 K, x2 = 0.9 | 859.158 | 1170
320.65 K, x2 = 0.951 | 815.245 | 1103.5
323.15 K, x2 = 0 | 1158.73 | 1648.9
323.15 K, x2 = 0.055 | 1152.94 | 1672.4
323.15 K, x2 = 0.098 | 1146.39 | 1660.5
323.15 K, x2 = 0.193 | 1129.49 | 1629.2
323.15 K, x2 = 0.296 | 1108.59 | 1590.7
323.15 K, x2 = 0.399 | 1083.8 | 1545.5
323.15 K, x2 = 0.5 | 1054.64 | 1492.9
323.15 K, x2 = 0.598 | 1020.83 | 1432.5
323.15 K, x2 = 0.701 | 978.549 | 1359.5
323.15 K, x2 = 0.799 | 925.853 | 1271.4
323.15 K, x2 = 0.9 | 856.995 | 1163
323.15 K, x2 = 0.951 | 812.98 | 1096.1
